Results taken from patent US20200360405A1, “COMPOSITIONS AND METHODS FOR REDUCING LOCAL AND SYSTEMIC RISKS OF ENVENOMATION” (THE HENRY M. JACKSON FONDATION FOR THE ADVANCEMENT OF …, priority 2017, published 2020).

Columns and labels:
[1] = system: V. russelli crude venom PLA2; assay: Phospholipase A2 activity assay (EnzChek), V. russelli crude venom; assay type: biochemical, Vipera russelli; conditions: for Effect on V. russelli venom PLA2 activity (in words): venom pre-incubated 5-10 minutes with increasing concentrations, Example 2; for IC50 / PLA2 ≥90% inhibition (concentration), V. russelli venom: 0.2 μg venom, 10 minute time point, Example 1
Method: (§1) EnzChek® Phospholipase A 2 assay kits were used according to the manufacturer's recommendations. Briefly, equal volumes of venom solutions were incubated with PLA2 substrate and fluorometric analysis was performed over the course of 20 minutes. Venom activity was determined by creating a standard curve based upon PLA2 from honey bee venom.
(§2) For inhibition experiments, 0.4 μg N. kaouthia or 0.2 μg V. russelli venom was pre-incubated with the specified spreading factor inhibitor(s) for 5-10 minutes before adding the reaction to an equal volume of PLA2 substrate. Fluorometric analysis was performed over 20 minutes, with the 10 minute time point values being used to determine the percent inhibition. Background values were subtracted from all samples, and data was normalized to the venom-only controls. Excitation and emission wavelengths for these experiments were 485(20) nm and 528(20) nm, respectively.
(§3) Data are shown as the mean and standard deviation (SD) of at least duplicate readings. The half maximal inhibitory concentration (IC50) values were determined using GraphPad Prism. Table 1 summarizes the inhibitory activity of various spreading factor inhibitors for N. kaouthia and V. russelli crude venom extracts.
(§4) Snake venom samples were incubated with increasing concentrations of sodium aurothiomalate and/or doxycycline for 5-10 minutes prior to assaying the venom hyaluronidase, gelatinase, and PLA2 activities. As observed in Example 1, sodium aurothiomalate inhibited N. kaouthia and V. russeiii venom hyaluronidase activities, whereas doxycycline inhibited the venom gelatinase and PLA2 activities.

[2] = biological target: V. russelli crude venom hyaluronidase; assay: Hyaluronidase activity assay, V. russelli crude venom; assay type: biochemical, Vipera russelli; conditions: for Effect on V. russelli venom hyaluronidase activity (in words): venom pre-incubated 5-10 minutes with increasing concentrations, Example 2
Method: (§5) Hyaluronidase activity was assessed using the Enzymatic Assay of Hyaluronidase (3.2.1.35) protocol from Sigma Aldrich. Briefly, equal volumes of venom were incubated with 0.03% hyaluronic acid solution (0.03% (w/v) hyaluronic acid in 300 mM sodium phosphate (approximately pH 5.35)) for 1.5 hours at 37° C. A reaction aliquot was then added to a 5-fold volume of acidic albumin solution (24 mM sodium acetate, 70 mM acetic acid, 0.1% BSA adjusted to approximately pH 3.75), allowed to stand for 10 minutes, and then absorbance at 600 nm was measured. Data was converted to percent transmission (% T) and adjusted for background signals. Venom hyaluronidase activities were determined by creating a standard curve with bovine testes hyaluronidase.
(§6) For inhibition experiments, 6.75 μg N. kaouthia or 15 μg V. russelli venom was pre-incubated with the specified spreading factor inhibitor(s) for 5-10 minutes before adding an equal volume of the reaction to the hyaluronic acid solution. Data was converted to % T, adjusted for background signals, and then normalized to the venom-only controls.
as §3, §4

[3] = system: N. kaouthia crude venom PLA2; assay: Phospholipase A2 activity assay (EnzChek), N. kaouthia crude venom; assay type: biochemical, Naja naja kaouthia; conditions: for Effect on N. kaouthia venom PLA2 activity (in words): venom pre-incubated 5-10 minutes with increasing concentrations, Example 2; for IC50 / PLA2 ≥90% inhibition (concentration), N. kaouthia venom: 0.4 μg venom, 10 minute time point, Example 1
Method: as §1, §2, §3, §4

[4] = biological target: V. russelli crude venom gelatinase; assay: Gelatinase activity assay (EnzChek), V. russelli crude venom; assay type: biochemical, Vipera russelli
Method: (§7) EnzChek® Gelatinase/Collagenase assay kits were used according to the manufacturer's recommendations. Briefly, equal volumes of venom solutions were incubated with 1.0 mg/mL DQ gelatin and fluorometric analysis was performed for at least three hours, using excitation and emission wavelengths of 485(20) nm and 528(20) nm, respectively. Venom activity was determined by creating a standard curve with Clostridium histolyticum collagenase activity.
(§8) For inhibition experiments, 30 μg N. kaouthia or V. russelli venom was pre-incubated with the specified spreading factor inhibitor(s) for 5-10 minutes before adding an equal volume of the reaction to the 1.0 mg/mL DQ gelatin solution. Fluorometric readings were measured over the course of five hours, with the five hour time points being used to determine the percent inhibition. Data was adjusted for background signals and then normalized to the venom-only controls.
as §3, §4

[5] = biological target: N. kaouthia crude venom hyaluronidase; assay: Hyaluronidase activity assay, N. kaouthia crude venom; assay type: biochemical, Naja naja kaouthia; conditions: for Effect on N. kaouthia venom hyaluronidase activity (in words): venom pre-incubated 5-10 minutes with increasing concentrations, Example 2
Method: as §5, §6, §3, §4

[6] = biological target: N. kaouthia crude venom gelatinase; assay: Gelatinase activity assay (EnzChek), N. kaouthia crude venom; assay type: biochemical, Naja naja kaouthia
Method: as §7, §8, §3, §4

[7] = 15 μg venom, pre-incubation 5-10 min, Example 1
[8] = 30 μg venom, five hour time point, Example 1
[9] = venom pre-incubated 5-10 minutes with increasing concentrations, Example 2
[10] = 6.75 μg venom, pre-incubation 5-10 min, Example 1
[11] = asterisk: data obtained according to Example 2, five hour time point

Compound	Effect on V. russelli venom PLA2 activity (in words) [1]	Hyaluronidase ≥90% inhibition (concentration), V. russelli venom [2, 7]	Effect on V. russelli venom hyaluronidase activity (in words) [2]	Effect on N. kaouthia venom PLA2 activity (in words) [3]	Hyaluronidase ≥90% inhibition (concentration), N. kaouthia venom [5, 10]	Effect on N. kaouthia venom hyaluronidase activity (in words) [5]	IC50 [1] [µM]	PLA2 ≥90% inhibition (concentration), V. russelli venom [1] [µM]	IC50 [3] [µM]	PLA2 ≥90% inhibition (concentration), N. kaouthia venom [3] [µM]	also measured
CC(=O)N[C@@H](CS)C(=O)O [N-acetyl-L-cysteine]	consistently enhanced	6.0 to 9.6 mg/mL	inhibited	consistently enhanced	4.8 mg/mL	inhibited	–	–	–	–	Enhancement of PLA2 activities in V. russelli venom ([1]; N-acetyl-L-cysteine alone): 3-4 fold; Hyaluronidase IC50, V. russelli venom [2, 7]: ~4989 µg/mL; Gelatinase IC50, V. russelli venom [4, 8]: 1870 µg/mL; Gelatinase ≥90% inhibition (concentration), V. russelli venom [4, 8]: 2.31 mg/mL; Effect on V. russelli venom gelatinase activity (in words) [4, 9]: inhibited; Hyaluronidase IC50, N. kaouthia venom [5, 10]: 4503 µg/mL; Gelatinase IC50, N. kaouthia venom [6, 8]: 1850 µg/mL; Gelatinase ≥90% inhibition (concentration), N. kaouthia venom [6, 8]: 1.32 mg/mL; Effect on N. kaouthia venom gelatinase activity (in words) [6, 9]: inhibited
CC1=C(CC/C(C)=C/CCC2=CC[C@H](C3=CC(=O)O[C@H]3O)O[C@H]2O)C(C)(C)CCC1 [Manoalide]	–	–	–	–	–	–	31.4	1000	777	>1000	–
Cc1ccc(C(=O)Nc2ccc(S(=O)(=O)O)c3cc(S(=O)(=O)O)cc(S(=O)(=O)O)c23)cc1NC(=O)c1cccc(NC(=O)Nc2cccc(C(=O)Nc3cc(C(=O)Nc4ccc(S(=O)(=O)O)c5cc(S(=O)(=O)O)cc(S(=O)(=O)O)c45)ccc3C)c2)c1 [Suramin]	–	–	–	–	–	–	2010	12500	1520 ± 528	12500	–
O=C([O-])CC([S-])C(=O)[O-].[Au+].[Na+].[Na+] (stereo not drawn) [Sodium aurothiomalate, sodium aurothiomalate]	moderate, but statistically significant increase	373.25 µM	inhibited	moderate, but statistically significant increase	136.30 µM	inhibited	–	–	–	–	IC50 [2, 7]: 147 µM; IC50 [5, 10]: 42 µM; Gelatinase ≥90% inhibition (concentration), N. kaouthia venom [6, 11]: >208 µM; IC50 [6, 11]: 47 ± 30.4 µM
